Assays:
[1] = target: T1, PHD2 enzyme (residues 181-417) (Homo sapiens, UniProt Q9GZT9); assay: Inhibition of PHD2 Enzyme (LC/MS detection of hydroxylated peptide); assay type: biochemical; conditions: 5 nM enzyme, 1 μM biotin-labeled peptide, 2 μM 2-oxoglutarate, 60 min pre-incubation, pH 7.3; -log(IC50), IC50 molar; read-out: Inhibition of PHD2 (pIC50) (converted)
T1 construct: The IC50 values for the PHD2 enzyme (residues 181-417) were determined
Description: The IC50 values for the PHD2 enzyme (residues 181-417) were determined by mixing increasing amounts of an inhibitor with a fixed amount of enzyme (5 nM, final concentration) and Biotin-labeled peptide (Biotin-Asp-Leu-Glu-Met-Leu-Ala-Pro-Tyr-Ile-Pro-Met-Asp-Asp-Asp-Phe-Gln-Leu, 1 μM final concentration) and 2-oxyglutarate (2 μM final concentration) in 50 mM HEPES, 50 mM KCl, 0.5 mM TCEP, 2 μM FeCl2, 0.1 mg/mL BSA, at pH 7.3. The reaction was conducted by pre-incubating the enzyme in the presence of the inhibitor for 60 minutes at room temperature. The activity of the free enzyme was measured by adding the peptide, the 2-oxoglutarate, and ascorbic acid (1 mM final concentration). The enzymatic activity was quenched after 60 minutes by adding an excess of a tight binding inhibitor to the assay mixture. The amount of product released was measured by using a LC/MS system (Agilent HPLC with Applied Biosystems API3000 Mass Spectrometer). Data were analyzed using the classical isotherm equation for the determination of IC50 values and are reported in Table 1, below, as pIC50, i.e., −log(IC50), where IC50 is molar concentration of the test compound at 50% inhibition.
(§1) Table 1 lists biological data for some of the compounds shown in the examples, where larger pIC50 and pEC50 values represent higher potency or activity, respectively. The IC50 data (reported in Table 1 as pIC50) were obtained using the enzyme-based assay described in the specification under the heading “Inhibition of PHD2 Enzyme.” The EC50 data (reported in Table 1 as pEC50) were obtained using the cell-based assay described in the specification under the heading “Cell-based HIF-α Stabilization Assay.”

[2] = test system: HIF1a protein content in H9c2 rat cardiomyocytes; assay: Cell-based HIF-α Stabilization Assay (HIF1a ELISA); conditions: H9c2 cells, 24 hours compound incubation, concentration giving 50% of desferrioxamine maximum response, -log(EC50), EC50 molar, read-out: Stabilization of HIF-α (pEC50) (converted)
Description: H9c2 rat cardiomyocytes (ATCC) were seeded in 96-well tissue culture microplates and cultured for 24 hours prior to addition of compounds (11 point range of serial dilutions) or DMSO vehicle. After 24 hours of compound incubation, whole cell extracts were prepared by lysing cells in cell extraction buffer containing protease and phosphatase inhibitors (Meso-Scale Discovery). HIF1a protein content was assessed by ELISA (Meso-Scale Discovery) and expressed as % relative to the maximum response obtained from the positive control, desferrioxamine (Sigma-Aldrich). EC50 for each compound was obtained by curve-fitting using XLfit4 MicroSoft Excel curve-fitting software to calculate the compound concentration that results in 50% of the desferrioxamine maximum response.
as §1

T1 sequence (Q9GZT9 181-417): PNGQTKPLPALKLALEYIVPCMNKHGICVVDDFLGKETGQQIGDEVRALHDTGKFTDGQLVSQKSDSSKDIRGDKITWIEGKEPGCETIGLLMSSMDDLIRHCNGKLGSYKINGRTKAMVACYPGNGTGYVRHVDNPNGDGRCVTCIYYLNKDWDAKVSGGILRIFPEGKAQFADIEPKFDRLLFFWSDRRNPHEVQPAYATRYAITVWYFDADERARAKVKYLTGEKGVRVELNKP

IC50 [1] | SMILES | EC50 [2]
50.1 nM | Cc1cc(C#N)cc(C)c1CNC(=O)c1ncc(C(F)(F)F)cc1O [Example 28, N-(4-cyano-2,6-dimethylbenzyl)-3-hydroxy-5-(trifluoromethyl)picolinamide] | 15800 nM
12.6 nM | Cc1cc(C#N)cc(C)c1CNC(=O)c1ncccc1O [Example 10, N-(4-cyano-2,6-dimethylbenzyl)-3-hydroxypicolinamide] | 3160 nM
31.6 nM | N#Cc1ccc(CNC(=O)c2ncccc2O)c(F)c1 [Example 5, N-(4-cyano-2-fluorobenzyl)-3-hydroxypicolinamide] | 7940 nM
50.1 nM | CCN1CCN(C(=O)c2cnc(C(=O)N[C@@H]3CCc4cc(C#N)ccc43)c(O)c2)CC1 [Example 9, (R)—N-(5-cyano-2,3-dihydro-1H-inden-1-yl)-5-(4-ethylpiperazine-1-carbonyl)-3-hydroxypicolinamide] | 12600 nM
10 nM | COc1cnc(C(=O)NCc2ccc(C#N)cc2C)c(O)c1 [Example 38, N-(4-cyano-2-methylbenzyl)-3-hydroxy-5-methoxypicolinamide] | 7940 nM
15.8 nM | Cc1cc(C#N)cc(C)c1CNC(=O)c1ncc(F)cc1O [Example 27, N-(4-cyano-2,6-dimethylbenzyl)-5-fluoro-3-hydroxypicolinamide] | 6310 nM
1260 nM | N#Cc1ccc2c(c1)CCCC2NC(=O)c1ncccc1O (stereo not shown) [Example 18, N-(6-cyano-1,2,3,4-tetrahydronaphthalen-1-yl)-3-hydroxypicolinamide] | 50100 nM
398 nM | N#Cc1ccc(CNC(=O)c2ncccc2O)nc1 [Example 24, N-((5-cyanopyridin-2-yl)methyl)-3-hydroxypicolinamide] | 7940 nM
7.94 nM | COc1cnc(C(=O)N[C@@H]2CCc3cc(C#N)ccc32)c(O)c1 [Example 33, (R)—N-(5-cyano-2,3-dihydro-1H-inden-1-yl)-3-hydroxy-5-methoxypicolinamide] | 6310 nM
31.6 nM | N#Cc1ccc(CNC(=O)c2ncccc2O)cc1F [Example 6, N-(4-cyano-3-fluorobenzyl)-3-hydroxypicolinamide] | 6310 nM
100 nM | CCN1CCN(C(=O)c2cnc(C(=O)NCc3ccc(C#N)cc3C)c(O)c2)CC1 [Example 8, N-(4-cyano-2-methylbenzyl)-5-(4-ethylpiperazine-1-carbonyl)-3-hydroxypicolinamide] | 12600 nM
39.8 nM | Cc1cc(CNC(=O)c2ncccc2O)c(C)cc1C#N [Example 12, N-(4-cyano-2,5-dimethylbenzyl)-3-hydroxypicolinamide] | 25100 nM
63.1 nM | N#Cc1ccc(CNC(=O)c2ncccc2O)cc1 [Example 1, N-(4-cyanobenzyl)-3-hydroxypicolinamide] | 10000 nM
15.8 nM | N#Cc1ccc2c(c1)CC[C@H]2NC(=O)c1ncc(F)cc1O [Example 30, (R)—N-(5-cyano-2,3-dihydro-1H-inden-1-yl)-5-fluoro-3-hydroxypicolinamide] | 15800 nM
79.4 nM | CCN1CCN(c2cnc(C(=O)NCc3c(C)cc(C#N)cc3C)c(O)c2)CC1 [Example 41, N-(4-cyano-2,6-dimethylbenzyl)-5-(4-ethylpiperazin-1-yl)-3-hydroxypicolinamide] | 6310 nM
39.8 nM | N#Cc1cnc(C(=O)N[C@@H]2CCc3cc(C#N)ccc32)c(O)c1 [Example 34, (R)-5-cyano-N-(5-cyano-2,3-dihydro-1H-inden-1-yl)-3-hydroxypicolinamide] | 12600 nM
316 nM | Cc1cc(C#N)ccc1CNC(=O)c1ncc(C#N)cc1O [Example 17, 5-cyano-N-(4-cyano-2-methylbenzyl)-3-hydroxypicolinamide] | 50100 nM
25.1 nM | Cc1cc(C#N)cc(C)c1CNC(=O)c1ncc(C#N)cc1O [Example 26, 5-cyano-N-(4-cyano-2,6-dimethylbenzyl)-3-hydroxypicolinamide] | 12600 nM
39.8 nM | Cc1cc(C#N)cc(C)c1CNC(=O)c1ncc(N2CCN(CC(F)F)CC2)cc1O [Example 42, N-(4-cyano-2,6-dimethylbenzyl)-5-(4-(2,2-difluoroethyl)piperazin-1-yl)-3-hydroxypicolinamide] | 3980 nM
2510 nM | N#Cc1ccc2c(c1)CC[C@@H]2NC(=O)c1ncccc1O [Example 21, (S)—N-(5-cyano-2,3-dihydro-1H-inden-1-yl)-3-hydroxypicolinamide] | 50100 nM
20 nM | Cc1cc(C#N)cc(C)c1CNC(=O)c1ncc(Cl)cc1O [Example 25, 5-chloro-N-(4-cyano-2,6-dimethylbenzyl)-3-hydroxypicolinamide] | 12600 nM
126 nM | N#Cc1ccc2c(c1)CC[C@H]2NC(=O)c1ncc(C(F)(F)F)cc1O [Example 32, (R)—N-(5-cyano-2,3-dihydro-1H-inden-1-yl)-3-hydroxy-5-(trifluoromethyl)picolinamide] | 39800 nM
10 nM | N#Cc1ccc2c(c1)CC[C@H]2NC(=O)c1ncccc1O [Example 19, (R)—N-(5-cyano-2,3-dihydro-1H-inden-1-yl)-3-hydroxypicolinamide] | 6310 nM

From US20200277262A1, “N-(CYANO-SUBSTITUTED BENZYL OR PYRIDINYLMETHYL)-3-HYDROXYPICOLINAMIDE DERIVATIVES” (Takeda Pharmaceutical Company Limited, priority 2017, published 2020)
